PubChem BioAssay AID1194 (EPA DSSTox, 2008)
The source made the active and inactive calls.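 Rule for the calls: active = chemicals rated mutagenic or weakly mutagenic in the Salmonella bacterial test by one literature review, or positive overall by another; inconclusive = no clear call, values can overlap the other calls; inactive = the rest.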

Tested on: Salmonella typhimurium Ames mutagenicity, literature compiled
Assay: DSSTox (CPDBAS) Carcinogenic Potency Database Salmonella Mutagenicity
Procedure, shortened: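 Literature-compiled Salmonella result: chemical called active if rated overall "mutagenic" or "weakly mutagenic" by Zeiger or overall "positive" by the EPA Gene-Tox Program.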

Row | Compound | outcome
1 | NC(=O)N(CC(=O)O)N=O | inactive
2 | CCCCCCCC(=O)OCC(COC(=O)CCCCCCC)OC(=O)CCCCCCC | active; inactive
3 | CCCCC(CC)COC(=O)c1ccccc1C(=O)OCC(CC)CCCC (stereo not given) | inactive; active
4 | ClC(Cl)(Cl)C(Cl)(Cl)Cl | inactive; active
5 | CC(=O)N(O)c1ccc2c(c1)Cc1ccccc1-2 | active; inactive
6 | O=NN1CCC1 | active; inactive
7 | [Cl-].[Cl-].[Cl-].[Fe+3] | inactive
8 | Clc1nc(Cl)nc(Nc2ccccc2Cl)n1 | inactive
9 | Cn1cnc([N+](=O)[O-])c1Sc1ncnc2nc[nH]c12 | active
10 | ClC1C2(Cl)C3C4C5OC5C5C4C1(Cl)C(Cl)(C53)C2(Cl)Cl (stereo not given) | active
11 | CC(=O)OC(OC(C)=O)c1ccc([N+](=O)[O-])o1 | active
12 | CC(=O)Nc1ccc(N=Nc2cc(C)ccc2O)cc1 | active
13 | O=CNNc1nc(-c2ccc([N+](=O)[O-])o2)cs1 | active; inactive
14 | ClC(Cl)(Cl)c1ccccc1 | active
15 | Nc1ccc(-c2ccccc2)cc1 | active
16 | O=C(O)COc1ccc(Cl)cc1Cl | inactive
17 | CC(CN1c2ccccc2Sc2ccccc21)N(C)C (stereo not given) | inactive
18 | CC(COc1ccccc1)N(CCCl)Cc1ccccc1 (stereo not given) | active; inactive
19 | C[C@]12C=CC(=O)C=C1CC[C@@H]1[C@@H]2C(=O)C[C@@]2(C)[C@H]1CC[C@]2(O)C(=O)CO | active
20 | COc1ccc(O)c(C(C)(C)C)c1 | inactive; active
21 | c1ccc2c(c1)Oc1ccccc1O2 | inactive
22 | CC[N+](=O)[O-] | inactive; active
23 | C=CC(O)c1ccc(OC)cc1 (stereo not given) | inactive; active
24 | COC(=O)C(c1ccccc1)C1CCCCN1 (stereo not given) | inactive

Row | Compound | outcome
25 | BrCCBr | active
26 | CCc1nc(N)nc(N)c1-c1ccc(Cl)cc1 | inactive; active
27 | O=NN1CC=CCC1 | active
28 | c1ccoc1 | inactive
29 | O=Nc1ccc(NO)cc1 | active; inactive
30 | Cc1noc(NS(=O)(=O)c2ccc(N)cc2)c1C | inactive; active
31 | CCc1ccc(C(c2ccc(CC)cc2)C(Cl)Cl)cc1 | active
32 | NNCCc1ccccc1 | active; inactive
33 | OCCO | inactive
34 | COc1ccc(O)cc1 | inactive; active
35 | NC(=S)NNC(N)=S | inactive; inconclusive
36 | ClCC(Cl)Cl | inactive
37 | O=C1CCC(=O)O1 | inactive; active
38 | O=C1C2CC=CCC2C(=O)N1SC(Cl)(Cl)Cl (stereo not given) | active
39 | Cc1ccc(Cl)cc1N | inactive; active
40 | CCOc1ccc(NC(N)=O)cc1 | inactive; active
41 | Nc1ccc([N+](=O)[O-])cc1O | active
42 | C=Cc1ccccc1 | active; inactive
43 | Cc1cc(O)c2c(c1)C(=O)c1cc(O)cc(O)c1C2=O | active
44 | Cc1cc(C)c(N=Nc2c(O)c(S(=O)(=O)O)cc3cc(S(=O)(=O)O)ccc23)cc1C | inactive; active
45 | Cc1c2ccccc2c(C)c2c1ccc1ccccc12 | active
46 | CC=O | inactive; active
47 | O=Cc1ccccc1 | inactive; active
48 | O=C(O)C(Cl)(Cl)Cl | inactive

Row | Compound | outcome
49 | Cc1ccccc1N | active
50 | Cc1ccc2cc3c(ccc4ccccc43)c3c2c1CC3 | active
51 | O=[N+]([O-])c1ccc(O)c([N+](=O)[O-])c1 | inactive
52 | CCOC(=O)CC(SP(=O)(OC)OC)C(=O)OCC (stereo not given) | inactive
53 | COc1ccc(C(=O)/C(Br)=C\C(=O)O)cc1 | active
54 | Nc1ccc(Cc2ccc(N)cc2)cc1 | active
55 | CCCOC(=O)c1cc(O)c(O)c(O)c1 | inactive
56 | Clc1ccc(C(c2ccccc2Cl)C(Cl)Cl)cc1 (stereo not given) | inactive
57 | O=[N+]([O-])c1cc([As](=O)(O)O)ccc1O | inactive
58 | C[C@@H]1O[C@@H](OC[C@H]2O[C@@H](Oc3c(-c4ccc(O)c(O)c4)oc4cc(O)cc(O)c4c3=O)[C@H](O)[C@@H](O)[C@@H]2O)[C@H](O)[C@H](O)[C@H]1O | active; inactive
59 | CN(C)C(=O)Nc1ccc(Cl)cc1 | inactive; active
60 | Nc1c(Cl)c(Cl)nc(C(=O)O)c1Cl | inactive; active
61 | CN(C)N=O | active
62 | O=C1c2ccccc2C(=O)N1SC(Cl)(Cl)Cl | active
63 | ClCC(Cl)CCl | active; inactive
64 | O=P1(NCCCl)OCCCN1CCCl (stereo not given) | active; inactive
65 | c1ccc2cc(Nc3ccc(Nc4ccc5ccccc5c4)cc3)ccc2c1 | active
66 | CC(=O)Nc1nc(NC(C)=O)nc(-c2ccc([N+](=O)[O-])o2)n1 | active; inactive
67 | CN(C)P(=O)(N(C)C)N(C)C | inactive
68 | Cc1cc(=O)n(-c2ccccc2)n1C | inactive; active
69 | NCCNc1cccc2ccccc12 | active
70 | O=C1OC(c2ccc(O)cc2)(c2ccc(O)cc2)c2ccccc21 | inactive
71 | Nc1nc(N)nc(N)n1 | inactive; active
72 | Oc1cccc(O)c1 | inactive

Row | Compound | outcome
73 | NS(=O)(=O)c1cc2c(cc1Cl)NCNS2(=O)=O | inactive; active
74 | CCCCCC(N)=O | inactive; active
75 | CCCCNC(=O)NS(=O)(=O)c1ccc(C)cc1 | inactive; active
76 | C=CBr | active; inactive
77 | CN(C)Nc1nc(-c2ccc([N+](=O)[O-])o2)cs1 | active; inactive
78 | O=[N+]([O-])c1ccc2c(c1)Cc1ccccc1-2 | active
79 | O=P(OCC(Br)CBr)(OCC(Br)CBr)OCC(Br)CBr (stereo not given) | active
80 | FC(F)OC(F)(F)C(F)Cl (stereo not given) | inactive; active
81 | CCN(CC)C(=S)S | inactive
82 | NCCCCCCCCCCC(=O)O | inactive; active
83 | Oc1ccc(Cl)cc1Cc1ccccc1 | inactive; active
84 | NNC(N)=O | inactive
85 | O=C(Nc1nc(-c2ccc([N+](=O)[O-])o2)cs1)C(F)(F)F | active
86 | NC(=S)Nc1ccccc1 | inactive
87 | Oc1ccc(Cl)cc1Cl | inactive; active
88 | Nc1ccc(Cl)cc1N | active; inactive
89 | [CH3][Hg][Cl] | inactive; active
90 | CCCCN(CCCCO)N=O | active; inactive
91 | O=C(O)c1ccccc1 | inactive
92 | CCOC(=O)C1OC1(C)c1ccccc1 (stereo not given) | inactive; active
93 | O=C(O)/C=C/c1ccc(O)c(O)c1 | inactive
94 | COP(=S)(OC)SCn1nnc2ccccc2c1=O | active; inactive
95 | ClC=C(Cl)Cl | inactive; active
96 | O=C/C=C/c1ccccc1 | inactive

Row | Compound | outcome
97 | CC(=O)Nc1nc(-c2ccc([N+](=O)[O-])o2)cs1 | active; inactive
98 | CC1CN(N=O)C(=O)NC1=O (stereo not given) | active
99 | O=C1C2(Cl)C3(Cl)C4(Cl)C(Cl)(Cl)C5(Cl)C3(Cl)C1(Cl)C5(Cl)C24Cl (stereo not given) | inactive; active
100 | O=NN1CCCCCCCCCCCC1 | active; inactive
101 | O=Nc1ccc(Nc2ccccc2)cc1 | active
102 | ClC1=C(Cl)[C@]2(Cl)[C@@H]3[C@H]4C[C@H]([C@@H]5O[C@H]45)[C@@H]3[C@@]1(Cl)C2(Cl)Cl | inactive; active
103 | CCC1CO1 (stereo not given) | active
104 | ClC(Cl)=C(Cl)Cl | inactive; active
105 | CC(=O)Nc1ccc(O)cc1 | inactive; active
106 | c1ccc2n[nH]nc2c1 | active; inactive
107 | Cc1cc2ncccc2c2nc(N)n(C)c12 | active
108 | CCCCCCN(N=O)C(N)=O | active
109 | N[C@@H](Cc1c[nH]c2ccccc12)C(=O)O | inactive; active
110 | C=CC(=C)C | inactive
111 | CC(C)CON=O | active; inactive
112 | CC(N)=S | inactive; active
113 | COc1ccc(N)cc1N | active; inactive
114 | Nc1ccc(-c2ccc(N)cc2)cc1 | active
115 | O=[N+]([O-])c1ccc2c3c(cccc13)CC2 | active
116 | S=C1NCCN1 | active
117 | ClCC(Cl)(Cl)Cl | inactive; active
118 | OCc1ccco1 | inactive; active
119 | O=Cc1ccco1 | active; inactive
120 | NC(=O)c1cnccn1 | inactive; active

Row | Compound | outcome
121 | Oc1cc2c(cc1O)[C@H]1c3ccc(O)c(O)c3OC[C@@]1(O)C2 | inactive; active
122 | Nc1ccc(Nc2ccccc2)cc1 | inactive; active
123 | OCC(CO)(CBr)CBr | active
124 | ClC(Br)Br | inactive
125 | CC(C)CN(N=O)C(=N)N[N+](=O)[O-] | active
126 | C1OC1C1CO1 (stereo not given) | active
127 | O=[N+]([O-])c1ccc(Oc2ccc(Cl)cc2Cl)cc1 | active
128 | Cc1ccc(NC(N)=O)cc1 | inactive; active
129 | O=C(O)c1[nH]n(-c2ccc(S(=O)(=O)O)cc2)c(=O)c1N=Nc1ccc(S(=O)(=O)O)cc1 | inactive; active
130 | CC(C)O | inactive; active
131 | ClCC(Br)CBr (stereo not given) | active; inactive
132 | O=NN1CCNCC1 | active
133 | N=C1C=CC(=C(c2ccc(N)cc2)c2ccc(N)cc2)C=C1 | active
134 | O=C1C=C2C(=CCOC2O)O1 (stereo not given) | inactive; active
135 | CC1CO1 (stereo not given) | active
136 | C[N+](C)(C)CCO | inactive; active
137 | [Na+] | inactive
138 | COC(=O)[C@H]1[C@H]2C[C@@H]3c4[nH]c5cc(OC)ccc5c4CCN3C[C@H]2C[C@@H](OC(=O)c2cc(OC)c(OC)c(OC)c2)[C@@H]1OC | inactive
139 | O[C@@H]([C@H](O)[C@@H](O)CBr)[C@@H](O)CBr | active
140 | Cc1cc(=O)[nH]c(=S)[nH]1 | inactive
